According to PubChem BioAssay AID743396 (Broad Institute, 2014):
Calls of active or inactive are those of the source.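 Rule for the calls: active = fitted curve reaches a 40% rise in fluorescent cells at or below the top valid dose; inactive = opposite-direction effect, or the rest.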

Assay: autofluorescent compounds in non-GFP fibroblasts, dose response, artefact control for X-chromosome reactivation project, imaging, mTEFS fibroblasts, cherry-pick (AID 743396);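 note: raw share of Hoechst-counted cells scored GFP positive without control normalization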
Conditions: mTEFS fibroblasts autofluorescence, GFP-channel imaging, 3 days; at 19.5 µM (top of the series); cells pretreated with 5-aza-dC

Compound	% fluorescent cells increase
CC(=O)c1c(COC(=O)c2ccccc2Cl)nc2ccccc2[n+]1[O-]	0.001% (inactive)
COc1ccc(NC(=O)N(C)[C@H]2C[C@H]3c4[nH]c5ccc(-c6ccc(OC)cc6)cc5c4CCN3C(=O)[C@H]2[C@H](C)O)cc1	0.507% (inactive)
NC(=NC(=O)c1cccc(C(F)(F)F)c1)c1ccc(C(F)(F)F)cn1	0% (inactive)
COc1ccc2c3c(n(C)c2c1)[C@H](CO)N(Cc1ccccc1F)CC31CCN(CC2CC2)CC1	-0.126% (inactive)
O=C(c1nc(SCc2ccc([N+](=O)[O-])cc2)n2ccccc12)C(F)(F)F	0.04% (inactive)
CCN1CCN(c2cc3nc(C)n(Cc4ccccc4)c(=O)c3cc2NC(=O)c2ccccc2F)CC1	0% (inactive)
Cc1ccc(S(=O)(=O)N(C)C[C@H]2Oc3ccc(NC(=O)Nc4ccccc4)cc3CC(=O)N([C@H](C)CO)C[C@@H]2C)cc1	0% (inactive)
CCCCC(CCC(=O)Nc1ccn(-c2ccccc2)n1)C(=O)O (centres undefined)	-0.003% (inactive)
C[C@H]1CCCCO[C@@H](CN(C)C(=O)Nc2ccc(C(F)(F)F)cc2)[C@@H](C)CN([C@@H](C)CO)C(=O)c2cc(NC(=O)CCC(F)(F)F)ccc2O1	-0.166% (inactive)
Cc1ccc(-c2nc3ccc(Br)cn3c2Cc2ccccc2C(F)(F)F)cc1	0.042% (inactive)
C[C@@H]1CCCCO[C@H](CN(C)Cc2ccc3c(c2)OCO3)[C@@H](C)CN([C@H](C)CO)C(=O)c2cc(NS(=O)(=O)c3ccc(F)cc3)ccc2O1	0.175% (inactive)
Cc1ccc(O)c(N=Nc2ccc(S(=O)(=O)N3CCCC3)cc2)c1	0% (inactive)
CC(C)c1ccc(CN2CCN(C(=O)CSc3nnnn3C3CC3)CC2)cc1	0.042% (inactive)
COc1ccc2c3c([nH]c2c1)[C@H](CO)N(C(=O)Nc1ccc(F)cc1)CC31CN(CC2CC2)C1	0.116% (inactive)
CCOc1ccc(C(=O)c2cc([N+](=O)[O-])ccc2N2CCOCC2)cc1	0% (inactive)
COc1ccc(Cc2c(O)nc(SCC(=O)NC34CC5CC(CC(C5)C3)C4)[nH]c2=O)cc1	0.014% (inactive)
O=C(N/N=C/c1ccc([N+](=O)[O-])o1)c1cc2ccccc2o1	1.73% (inactive)
CN1OC[C@@H]2CN(Cc3ccccc3)[C@H](c3cccc(N4CCOCC4)c3)C[C@@H]21	0.013% (inactive)
O=C1c2ccccc2C(=Cc2cccnc2)c2ccccc21	0.125% (inactive)
COc1cc(/C=C/c2ccc3cccc(O)c3n2)c(Br)cc1O	0% (inactive)

Compound	% fluorescent cells increase
O=C(N/N=C/c1ccc(Br)s1)c1ccc([N+](=O)[O-])cc1	-0.007% (inactive)
COc1ccc(-c2ccc(C(=O)NCc3cccs3)c3occc23)c(C)c1	0.07% (inactive)
O=C(CCl)N=c1sccn1Cc1ccc(Cl)cc1Cl	0% (inactive)
COCCCn1c(C)cc(C(=O)COC(=O)CCc2nc3ccccc3c(=O)[nH]2)c1C	3.52% (inactive)
O=C(CCl)N=c1sccn1Cc1cccc2ccccc12	9.31% (inactive)
CC(=O)N[C@@H](CC(=O)O)C(=O)O	0.642% (inactive)
Oc1ccc(Cl)cc1C=Nc1ccc2c3c(cccc13)CC2	0.216% (inactive)
CCCC(=O)OCCNc1cc(Sc2nccn2C)c2nonc2c1[N+](=O)[O-]	0% (inactive)
Cc1ccc(-c2csc(NC(=O)c3cccc([N+](=O)[O-])c3C(=O)O)n2)cc1	0% (inactive)
CCCOc1ccc(Oc2nc(-c3ccncc3)nc3ccccc23)cc1	0.007% (inactive)
Cc1ccc(S(=O)(=O)N2CC3(O)CN(C(=O)OC(C)C)N(C(=O)OC(C)C)CC3(OC(=O)NCc3ccccc3)C2)cc1 (centres undefined)	0.003% (inactive)
COc1ccccc1CNC(=O)COC(=O)COc1ccccc1F	1.84% (inactive)
COc1ccc(C)c(-n2c(=O)n(Cc3ccccc3)c(=O)c3[nH]cnc32)c1	0.074% (inactive)
NNc1nc2c(-c3ccc(F)cc3)nnn2c2ccccc12	0.008% (inactive)
O=C(Nc1cccc(C(=O)O)c1)/C(=C\c1ccccc1)NC(=O)c1ccc(Br)o1	0% (inactive)
Nc1nnc(SCC(=O)c2ccc([N+](=O)[O-])cc2)s1	-0.007% (inactive)
CC(=O)Nc1ccc(N2Cc3ccccc3C2)cc1	0.093% (inactive)
CCN(CC)c1ccc(N=Cc2ccc([N+](=O)[O-])o2)cc1	0.026% (inactive)
CC[C@]12c3[nH]c4cc(CCC(=O)N(C)C)ccc4c3CCN1C(=O)[C@@H](CC(=O)NCCC1=CCCCC1)C[C@@H]2C(=O)N1CCN(C(=O)c2ccco2)CC1	0.051% (inactive)
COc1ccc(NC(=O)C(C)N2C(=O)c3ccccc3C2=O)c(OC)c1 (centres undefined)	0.081% (inactive)

Compound	% fluorescent cells increase
COc1ccccc1NC(=O)N[C@H]1C=C[C@@H](CC(=O)N[C@@H](C)c2ccccc2)O[C@@H]1CO	0.342% (inactive)
CC(C)N1C(=O)C(=O)N(CC(=O)N2CCc3ccccc32)C1=O	0.029% (inactive)
Cc1cccc(-c2ccc([C@@H]3[C@@H](CO)N4CCCCN(S(=O)(=O)c5ccccc5F)C[C@H]34)cc2)c1	8.13% (inactive)
CCOCCCn1c(=NC(C)=O)c(C#N)cc2c(=O)n3cccc(C)c3nc21	0.498% (inactive)
CC(=O)Nc1ccc(NS(=O)(=O)c2ccc3c(c2)oc(=O)n3C)cc1	0.01% (inactive)
C[C@@H]1COc2cccc(NCCO)c2S(=O)(=O)N1	0% (inactive)
c1ccc(CCNc2nc(-c3ccccn3)nc3ccccc23)cc1	0% (inactive)
Cc1ccc(NC(=O)c2ccc(=O)[nH]c2)cc1S(=O)(=O)N1CCCCCC1	0.615% (inactive)
COc1ccc2c3c([nH]c2c1)[C@@H](CO)N(Cc1cc(F)ccc1F)CC31CCN(C(C)=O)CC1	0% (inactive)
COc1ccc(Nc2nc(N)c(C(=O)c3ccc(F)cc3)s2)cc1	0% (inactive)
O=C1C2C3C=CC(CNS(=O)(=O)c4ccccc4[N+](=O)[O-])(O3)C2C(=O)N1c1ccccc1 (centres undefined)	0.044% (inactive)
CN(Cc1nccn1C)C(=O)CC1C(=O)NCCN1CC(c1ccccc1)c1ccccc1 (centres undefined)	0.889% (inactive)
Cc1cccc2sc(N(CCCN(C)C)C(=O)CN3C(=O)c4ccccc4C3=O)nc12	0% (inactive)
CCOC(=O)C1=C(C)NC(=S)NC1/C=C/c1ccccc1 (centres undefined)	-0.004% (inactive)
COC(=O)c1sc(-c2ccc(C(C)(C)C)cc2)cc1NC(=O)c1ccccc1C(=O)O	0.032% (inactive)
Oc1c(C(c2ccccc2Cl)N2CCCC2)ccc2cccnc12 (centres undefined)	0% (inactive)
Cc1ccc(NC(=O)COc2ccc(-c3nnco3)cc2)cc1S(=O)(=O)N1CCOCC1	0.01% (inactive)
CN(C)CCN(Cc1ccc(Cl)cc1)c1ccccn1	-0.004% (inactive)
N/C(=N\OC(=O)C12CC3CC(CC(C3)C1)C2)c1ccncc1	-0.004% (inactive)
